Measurements as given in the NIST ThermoML archive (doi:10.1021/je100211s).
Numbers after ± are expanded uncertainties.

Assay: mn = molality of the nth substance listed, in mol/kg
Settings: 101 kPa, Liquid; for viscosity: Capillary tube (Ostwald / Ubbelohde) method; for mass density: Vibrating tube method

Work on `CCCCCCCCCCCCCCCC[N+](C)(C)C.[Br-]` [N,N,N-trimethyl-1-hexadecanaminium bromide] + O yielded a viscosity (298.15 K, m1 = 0.001) of 0.899 ± 0.009 mPa·s, a viscosity (298.15 K, m1 = 0.003) of 0.91 ± 0.009 mPa·s and a viscosity (298.15 K, m1 = 0.005) of 0.921 ± 0.009 mPa·s. The mass density (298.15 K, m1 = 0.001) was 997.2 ± 0.5 kg/m3, the mass density (298.15 K, m1 = 0.003) was 997.3 ± 0.5 kg/m3 and the mass density (298.15 K, m1 = 0.005) was 997.4 ± 0.5 kg/m3. The viscosity (308.15 K, m1 = 0.001) was 0.744 ± 0.008 mPa·s, the viscosity (308.15 K, m1 = 0.003) was 0.752 ± 0.008 mPa·s and the viscosity (308.15 K, m1 = 0.005) was 0.76 ± 0.008 mPa·s. The mass density (308.15 K, m1 = 0.001) was 994.2 ± 0.5 kg/m3, the mass density (308.15 K, m1 = 0.003) was 994.3 ± 0.5 kg/m3 and the mass density (308.15 K, m1 = 0.005) was 994.4 ± 0.5 kg/m3. It also gave a viscosity (318.15 K, m1 = 0.001) of 0.617 ± 0.008 mPa·s, a viscosity (318.15 K, m1 = 0.003) of 0.622 ± 0.008 mPa·s and a viscosity (318.15 K, m1 = 0.005) of 0.635 ± 0.008 mPa·s. The mass density (318.15 K, m1 = 0.001) was 990.4 ± 0.5 kg/m3, the mass density (318.15 K, m1 = 0.003) was 990.5 ± 0.5 kg/m3 and the mass density (318.15 K, m1 = 0.005) was 990.6 ± 0.5 kg/m3.
